Test: mn = molality of the nth substance listed, in mol/kg
Conditions: 101 kPa, Liquid

[Cl-].[Na+] [sodium chloride] + O
Conditions | mass density, 293.15 K [kg/m3] | mass density, 298.15 K [kg/m3] | mass density, 303.15 K [kg/m3] | viscosity, 293.15 K [mPa·s] | viscosity, 298.15 K [mPa·s] | viscosity, 303.15 K [mPa·s]
m1 = 0.2076 | 1006.3 | 1005.7 | 1004 | 1.012 | 0.9082 | 0.8115
m1 = 0.3959 | – | 1013.2 | 1011.7 | 1.031 | 0.9237 | 0.8306
m1 = 0.5997 | 1022 | 1021.2 | – | 1.054 | 0.9408 | 0.8489
m1 = 0.7817 | 1029 | 1028.1 | 1026.4 | 1.073 | 0.9565 | 0.8638
m1 = 1.01 | 1037.6 | – | 1034.8 | 1.098 | 0.9769 | 0.8825
m1 = 1.199 | 1044.5 | 1043.4 | 1041.4 | 1.117 | 0.9944 | 0.898
m1 = 1.502 | 1055.4 | 1054.3 | 1052.3 | 1.151 | 1.024 | 0.9236
m1 = 1.794 | 1065.7 | 1064.5 | 1062.5 | 1.184 | 1.054 | 0.9496
m1 = 2.004 | 1073.1 | 1071.8 | 1069.7 | 1.208 | 1.077 | 0.9695
m1 = 2.409 | 1086.9 | 1085.5 | 1083.4 | 1.256 | 1.124 | 1.011
m1 = 3 | 1106.5 | 1105 | 1102.7 | 1.332 | 1.2 | 1.08
m1 = 3.595 | 1125.5 | 1123.8 | 1121.4 | 1.412 | 1.288 | 1.162
m1 = 4.186 | 1143.5 | 1141.7 | 1139.2 | 1.496 | 1.385 | 1.256
m1 = 4.812 | 1162.1 | 1160 | 1157.5 | 1.592 | 1.502 | 1.373

[Cl-].[Cl-].[Cl-].[La+3] [lanthanum chloride] + O
Conditions | mass density, 293.15 K [kg/m3] | mass density, 298.15 K [kg/m3] | mass density, 303.15 K [kg/m3] | viscosity, 293.15 K [mPa·s] | viscosity, 298.15 K [mPa·s] | viscosity, 303.15 K [mPa·s]
m1 = 0.0996 | 1020.8 | 1019.4 | 1018 | 1.068 | 0.9503 | 0.8517
m1 = 0.1997 | 1043.7 | 1042.1 | 1040.4 | 1.109 | 0.9881 | 0.8863
m1 = 0.2997 | 1065.6 | 1063.8 | 1062 | 1.176 | 1.049 | 0.9414
m1 = 0.3994 | 1086.9 | 1085 | 1083.2 | 1.255 | 1.12 | 1.006
m1 = 0.4984 | 1107.7 | 1105.8 | 1103.9 | 1.34 | 1.196 | 1.075
m1 = 0.6 | 1128.9 | 1126.9 | 1125 | 1.432 | 1.279 | 1.149
m1 = 0.6981 | 1149.1 | 1147.2 | 1145.3 | 1.524 | 1.361 | 1.224
m1 = 0.7983 | 1169.6 | 1167.7 | 1165.8 | 1.621 | 1.447 | 1.301
m1 = 0.9256 | 1195.5 | 1193.7 | 1191.8 | 1.745 | 1.558 | 1.402
m1 = 1.201 | 1251.1 | 1249.5 | 1247.8 | 2.02 | 1.804 | 1.624

From the NIST ThermoML archive (doi:10.1021/je8004062)
